Legend:
Type in all cases: cell-based
p15 protein = assay: Evaluation of p15 induction activity (Western blotting); settings: test substance 0.1 μM, 24 hrs, ACHN cells or HT-29 cells, compared to DMSO, n=2
Description: (§1) ACHN cells or HT-29 cells were cultured in a 6 well plate at 2.5×10^5 cells/1.8 mL/well for 24 hrs, then a test substance (0.1 μM) dissolved in DMSO was added. After 24 hrs, cells were detached using trypsin-EDTA (ethylene diamine tetraacetic acid) and solubilized with NuPAGE LDS sample buffer (Invitrogen). Using an RC DC protein assay kit (BIO-RAD), the protein concentration of the sample was quantitated, and a sample in an amount corresponding to 10 μg of BSA (bovine serum albumin) was analyzed by Western blotting using an anti-p15 antibody. The density of the band stained with the anti-p15 antibody was measured by a densitometer to quantify the amount of p15 protein. As a control, DMSO was used and the test was performed with n=2 and the average protein amount was determined.

[1] = tested on: Renal cancer cell line ACHN cell; assay: Growth inhibitory effect against cancer cell lines (3H-thymidine uptake), ACHN; settings: Homo sapiens, ACHN
Description: Renal cancer cell line ACHN cell or colorectal cancer cell line HT-29 cells were cultured in a 96 well plate at 1.0×10^4 cells/90 μL/well for 24 hrs, then a test substance dissolved in DMSO (dimethyl sulfoxide) was added. After 18 hrs, ^3H-thymidine (0.25 μCi/well) was added and the cells were cultured for 6 hrs. Using a cell harvester, the cells were recovered on a UniFilter-96 GF/B glass filter and the ^3H radioactivity uptaken by the cells was measured by TopCount (Packard). As a control, DMSO was used and the activity of the test substance was expressed in the concentration (IC50) necessary for inhibiting ^3H radioactivity uptaken by the cell to 50% of that of the control group. The measurements were made in triplicate.

[2] = tested on: colorectal cancer cell line HT-29 cells; assay: Growth inhibitory effect against cancer cell lines (3H-thymidine uptake), HT-29; settings: Homo sapiens, HT-29, inhibition of 3H-thymidine uptake; test substance 18 hrs, then 3H-thymidine 6 hrs; triplicate
How it was run: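 IC50 = concentration reducing ^3H-thymidine incorporation to 50% of DMSO control, measured in triplicate. Compound added 24 hrs after plating (1.0×10^4 cells/well); label (0.25 μCi/well) given after 18 hrs of treatment, followed by 6 hrs further culture and scintillation counting of harvested cells.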

p27 protein = p27 protein induction test (Western blotting); settings: test substance (0.1 1M), 24 hrs, ACHN cells or HT-29 cells, compared to DMSO, n=2
Description: as §1, with “hrs,” for “hrs, then”, “[…])” for “μM)”, “anti-p27” for “anti-p15”, “p27” for “p15”

SMILES | fold induction at 0.1 µM (p15 protein) | IC50 [1] | IC50 [2] | fold induction at 0.1 µM (p27 protein)
CCCCC(=O)NCCC(=O)Nc1cccc(-n2c(=O)n(C3CC3)c(=O)c3c(Nc4ccc(I)cc4F)n(C)c(=O)c(C)c32)c1 [Example 4-12] | ≥ 1.5 | 10 to 100 nM | < 10 nM | ≥ 1.5
Cn1c(=O)cc(Nc2ccc(Br)cc2F)c2c(=O)n(C3CC3)c(=O)n(-c3cccc(N)c3)c21 [Example 1-264] | ≥ 1.5 | 100 to 1000 nM | 10 to 100 nM | ≥ 1.5
CC(=O)Nc1cccc(-n2c(=O)n(C3CC3)c(=O)c3c(Nc4ccc(I)cc4F)cc(=O)n(C)c32)c1 [Example 1-297] | ≥ 1.5 | 10 to 100 nM | < 10 nM | ≥ 1.5
Cc1c(=O)n(C)c(Nc2ccc(I)cc2F)c2c(=O)n(C3CC3)c(=O)n(-c3ccc(C(=O)N(C)C)cc3)c12 [Example 4-93] | ≥ 1.5 | 10 to 100 nM | < 10 nM | ≥ 1.5
Cc1c(=O)n(C)c(Nc2ccc(I)cc2F)c2c(=O)n(C3CC3)c(=O)n(-c3ccc4c(c3)NC(=O)CO4)c12 [Example 4-118] | ≥ 1.5 | 10 to 100 nM | < 10 nM | ≥ 1.5
Cc1c(=O)n(C)c(Nc2ccc(I)cc2F)c2c(=O)n(C3CC3)c(=O)n(-c3cccc(NC4=NCCO4)c3)c12 [Example 4-110] | ≥ 1.5 | 10 to 100 nM | < 10 nM | ≥ 1.5
C#Cc1ccc(Nc2cc(=O)n(C)c3c2c(=O)n(C2CC2)c(=O)n3-c2cccc(S(C)(=O)=O)c2)c(F)c1 [Example 1-259] | – | 100 to 1000 nM | < 10 nM | ≥ 1.5
Cc1c(=O)n(C)c(Nc2ccc(I)cc2F)c2c(=O)n(C3CC3)c(=O)n(-c3cccc(S(C)(=O)=O)c3)c12 [Example 4-55] | ≥ 1.5 | 10 to 100 nM | < 10 nM | ≥ 1.5
CSc1ccc(Nc2cc(=O)n(C)c3c2c(=O)n(C2CC2)c(=O)n3-c2cccc(NS(C)(=O)=O)c2)c(F)c1 [Example 1-286] | ≥ 1.5 | 10 to 100 nM | < 10 nM | ≥ 1.5
Cn1c(=O)cc(Nc2ccc(Br)cc2F)c2c(=O)n(C3CC3)c(=O)n(-c3cccc(NS(=O)(=O)CCl)c3)c21 [Example 1-282] | ≥ 1.5 | 100 to 1000 nM | 10 to 100 nM | ≥ 1.5
C#Cc1ccc(Nc2c3c(=O)n(C4CC4)c(=O)n(-c4ccc(NS(C)(=O)=O)cc4)c3c(C)c(=O)n2C)c(F)c1 [Example 4-76] | ≥ 1.5 | 10 to 100 nM | < 10 nM | ≥ 1.5
CN(C)CCOc1cccc(-n2c(=O)n(C3CC3)c(=O)c3c(Nc4ccc(Br)cc4F)cc(=O)n(C)c32)c1 [Example 1-218] | ≥ 1.5 | – | 10 to 100 nM | ≥ 1.5
Cc1c(=O)n(C)c(Nc2ccc(I)cc2F)c2c(=O)n(C3CC3)c(=O)n(-c3ccc(C(N)=O)cc3)c12 [Example 4-91] | ≥ 1.5 | 10 to 100 nM | < 10 nM | ≥ 1.5
CCS(=O)(=O)Nc1cccc(-n2c(=O)n(C3CC3)c(=O)c3c(Nc4ccc(I)cc4F)cc(=O)n(C)c32)c1 [Example 1-274] | – | < 10 nM | < 10 nM | ≥ 1.5
CCCS(=O)(=O)Nc1cccc(-n2c(=O)n(C3CC3)c(=O)c3c(Nc4ccc(I)cc4F)cc(=O)n(C)c32)c1 [Example 1-311] | – | < 10 nM | < 10 nM | ≥ 1.5
CCS(=O)(=O)Nc1cccc(-n2c(=O)n(C3CC3)c(=O)c3c(Nc4ccc(Br)cc4F)n(C)c(=O)c(C)c32)c1 [Example 3-5] | – | 10 to 100 nM | < 10 nM | ≥ 1.5
CCCC(=O)Nc1cccc(-n2c(=O)n(C3CC3)c(=O)c3c(Nc4ccc(Br)cc4F)cc(=O)n(C)c32)c1 [Example 1-279] | – | 100 to 1000 nM | 10 to 100 nM | ≥ 1.5
CCCCC(=O)NCCC(=O)Nc1cccc(-n2c(=O)n(C3CC3)c(=O)c3c(Nc4ccc(Br)cc4F)cc(=O)n(C)c32)c1 [Example 1-299] | – | 100 to 1000 nM | 10 to 100 nM | ≥ 1.5

SMILES | fold induction at 0.1 µM (p15 protein) | IC50 [1] | IC50 [2] | fold induction at 0.1 µM (p27 protein)
CCS(=O)(=O)Nc1cccc(-n2c(=O)n(C3CC3)c(=O)c3c(Nc4ccc(Br)cc4F)cc(=O)n(C)c32)c1 [Example 1-262] | – | 10 to 100 nM | < 10 nM | ≥ 1.5
COCCN(C)c1cccc(-n2c(=O)n(C3CC3)c(=O)c3c(Nc4ccc(Br)cc4F)cc(=O)n(C)c32)c1 [Example 1-253] | – | 100 to 1000 nM | 10 to 100 nM | ≥ 1.5
C#Cc1ccc(Nc2cc(=O)n(C)c3c2c(=O)n(C2CC2)c(=O)n3-c2cccc(NC(C)=O)c2)c(F)c1 [Example 1-310] | – | 10 to 100 nM | < 10 nM | ≥ 1.5
Cn1c(=O)cc(Nc2ccc(I)cc2)c2c(=O)n(C3CC3)c(=O)n(-c3cccc(NS(C)(=O)=O)c3)c21 [Example 1-302] | – | 10 to 100 nM | < 10 nM | ≥ 1.5
COc1ccc(Nc2cc(=O)n(C)c3c2c(=O)n(C2CC2)c(=O)n3-c2ccccc2)c(F)c1 [Example 1-175] | ≥ 1.5 | – | 100 to 1000 nM | ≥ 1.5
CCc1ccc(Nc2cc(=O)n(C)c3c2c(=O)n(C2CC2)c(=O)n3-c2cccc(NS(C)(=O)=O)c2)c(F)c1 [Example 1-275] | – | 10 to 100 nM | < 10 nM | ≥ 1.5
CN(C)S(=O)(=O)Nc1cccc(-n2c(=O)n(C3CC3)c(=O)c3c(Nc4ccc(Br)cc4F)cc(=O)n(C)c32)c1 [Example 1-309] | – | 10 to 100 nM | < 10 nM | ≥ 1.5
COc1ccc(-n2c(=O)n(C3CC3)c(=O)c3c(Nc4ccc(Br)cc4F)cc(=O)n(C)c32)cc1 [Example 1-186] | ≥ 1.5 | – | 10 to 100 nM | ≥ 1.5
C#Cc1ccc(Nc2cc(=O)n(C)c3c2c(=O)n(C2CC2)c(=O)n3-c2cccc(NS(C)(=O)=O)c2)c(F)c1 [Example 1-260] | – | < 10 nM | < 10 nM | ≥ 1.5
CCNC(=O)Nc1cccc(-n2c(=O)n(C3CC3)c(=O)c3c(Nc4ccc(Br)cc4F)cc(=O)n(C)c32)c1 [Example 1-307] | – | 100 to 1000 nM | 10 to 100 nM | ≥ 1.5
CC(=O)Nc1cc(-n2c(=O)n(C3CC3)c(=O)c3c(Nc4ccc(I)cc4F)n(C)c(=O)c(C)c32)ccc1F [Example 4-99] | – | 100 to 1000 nM | < 10 nM | ≥ 1.5
CN1CCN(S(=O)(=O)c2cccc(-n3c(=O)n(C4CC4)c(=O)c4c(Nc5ccc(Br)cc5F)cc(=O)n(C)c43)c2)CC1 [Example 1-315] | – | 100 to 1000 nM | 10 to 100 nM | ≥ 1.5
Cn1c(=O)cc(Nc2ccc(Br)cc2F)c2c(=O)n(C3CC3)c(=O)n(-c3cccc(S(=O)(=O)N4CCOCC4)c3)c21 [Example 1-316] | – | 100 to 1000 nM | 10 to 100 nM | ≥ 1.5
Cn1c(=O)cc(Nc2ccc(Br)cc2F)c2c(=O)n(C3CC3)c(=O)n(-c3cccc(NCCN4CCOCC4)c3)c21 [Example 1-303] | – | 100 to 1000 nM | 10 to 100 nM | ≥ 1.5
CN(c1cccc(-n2c(=O)n(C3CC3)c(=O)c3c(Nc4ccc(Br)cc4F)cc(=O)n(C)c32)c1)S(C)(=O)=O [Example 1-228] | – | 100 to 1000 nM | 10 to 100 nM | ≥ 1.5
Cc1cc(N(C)C)ccc1Nc1cc(=O)n(C)c2c1c(=O)n(C1CC1)c(=O)n2-c1ccccc1F [Example 1-142] | ≥ 1.5 | – | 100 to 1000 nM | ≥ 1.5
CC(C)N1CCC(Nc2cc(=O)n(C)c3c2c(=O)n(C2CC2)c(=O)n3-c2ccccc2)CC1 [Example 1-182] | – | – | – | ≥ 1.5
Cn1c(=O)cc(Nc2ccc(Br)cc2F)c2c(=O)n(C3CC3)c(=O)n(-c3cccc(NC(=O)CO)c3)c21 [Example 1-263] | – | 100 to 1000 nM | < 10 nM | ≥ 1.5
